Eight molecules from patent publication US20050101678A1, “Antibacterial composition” (priority 2000, published 2005) can be followed below.

Structures are written as SMILES.

What all share (type): cell-based
In experiment [1] the test system is Ax 26 Corynebacterium sp. Put plainly: MIC microtiter plate test, axilla strain Ax 26. The settings on record: for Bacteriostatic activity Corynebact. Ax 26: Table 7, concentration for at least 80% reduction in growth during 24 hours; for Minimal inhibitory concentration (MIC) Ax 26: Table 1, growth inhibited by at least 80%, 24 h at 36° C. The text has this:
(§1) The different bacterial strains had been isolated from the human axilla by current microbiological practice. They were taxonomically identified by cell morphology, gram-reaction, and biochemical tests included in the Api coryne test kit (BioMerieux, France). Strain Staphylococcus epidermidis Ax25 was identified by fatty acid methyl ester analysis (FAME; German type strain collection DSMZ, Germany). The strains were maintained on Tryptic soy […] plates, this standard medium being amended with 5 g per Liter of Tween 80 and 1 g of Soybean lecithin. Plates were incubated at 36° C. for a period 48 hours. The bacteria were then swabbed from the plates and suspended in 4 ml of Müller-Hinton broth amended with 100 mg of Tween 80 per Liter (MH-Tween) and incubated again at 36° C. for 16 hours. Following incubation the bacterial suspensions were diluted in MH-Tween to obtain a final cell density of 10^6 colony forming units per ml. For each fragrance material four microtiter plates were used in the example, each microtiter plate having 8 rows, A-H, and 12 columns, 1-12.
(§2) To each column a diluted suspension of a different test organism was distributed, 100 μl per well. 1% stock solutions of the fragrance materials were then prepared in MH-Tween broth. The fragrance material was dispersed by ultrasonication into the aqueous medium to obtain a homogenous emulsion. 100 μl per well of this emulsion was then added to the first row of the microtiter plates already containing the target organisms. Serial dilution series were then prepared starting at row A and continuing until row G, each time removing 100 μl from a well and transferring it to the next well. In this way fragrance concentrations of 0.5%, 0.25%, 0.125%, 0.0625%, 0.03125%, 0.0156%, and 0.0078% were tested for their antibacterial efficacy. The reference compound Triclosan was tested at 16-fold lower concentrations. The plates were covered with plastic films and incubated for 24 h at 36° C. with shaking at 250 rpm. The turbidity developing in the microtiter plates was then examined after 24 h to determine microbial growth. The minimal concentration of fragrance inhibiting the growth of an organism by at least 80% was determined as the minimal inhibitory concentration (MIC).
(§3) Ax 25 was identified as Staphylococcus. epidermidis by FAME analysis. Identification with the Api Coryne test kit yielded the following species assignments for the remainder of the strains: Ax 26 Corynebacterium sp.; Ax 3 Corynebacterium bovis; Ax 7 Corynebacterium group G; Ax 10 Corynebacterium jeikeium; Ax 11 Corynebacterium jeikeium; Ax 12 Corynebacterium jeikeium; Ax 15 Corynebacterium jeikeium; Ax 20 Corynebacterium striatum/amycolatum; and Ax 19 Corynebacterium jeikeium. The strains were isolated from the axilla of 8 human volunteers. Based on biochemical tests and colony morphology all strains were distinct from each other, even the several strains all belonging to Corynebacterium jeikeium.

The test system of the next experiment is Corynebacteria. The experiment in a line: Activity against Corynebacteria. To be noted: statement in words.
From the text: With 2-methoxy-4-(5,5,6-trimethylbicyclo[2.2.1]hept-2-yl)cyclohexan-1-ol an outstanding activity is achieved.
as §1
To each column a diluted suspension of a different test organism was distributed, 100 μl per well. 1% stock solutions of the fragrance materials were then prepared in MH-Tween broth. […]

The subject of experiment [2] is Ax 7 Corynebacterium group G. Put plainly: MIC microtiter plate test, axilla strain Ax 7. To be noted: for Minimal inhibitory concentration (MIC) Ax 7: Table 1, growth inhibited by at least 80%, 24 h at 36° C.
From the text: as §1, §2, §3

The subject of experiment [3] is Ax 20 Corynebacterium striatum/amycolatum. Put plainly: MIC microtiter plate test, axilla strain Ax 20. The settings on record: Table 1; growth inhibited by at least 80%, 24 h at 36° C.
From the text: as §1
as §2, with “The minimal concentration of fragrance inhibiting the growth of an organism by at least 80% was determined as the minimal inhibitory concentration (MIC).” left out

For experiment [4], the system named is Staphylococcus epidermidis Ax25. Put plainly: MIC microtiter plate test, axilla strain Ax 25. To be noted: for Minimal inhibitory concentration (MIC) Ax 25: Table 1, growth inhibited by at least 80%, 24 h at 36° C.
From the text: as §1, §2, §3

Experiment [5] relates to Ax 3 Corynebacterium bovis. Put plainly: MIC microtiter plate test, axilla strain Ax 3. The settings on record: Table 1; growth inhibited by at least 80%, 24 h at 36° C.
From the text: as §1
as §2, with “The minimal concentration of fragrance inhibiting the growth of an organism by at least 80% was determined as the minimal inhibitory concentration (MIC).” left out

In experiment [6] the test system is Ax 11 Corynebacterium jeikeium. The experiment in a line: MIC microtiter plate test, axilla strain Ax 11. To be noted: Table 1; growth inhibited by at least 80%, 24 h at 36° C.
From the text: as §1
as §2, with “The minimal concentration of fragrance inhibiting the growth of an organism by at least 80% was determined as the minimal inhibitory concentration (MIC).” left out

Experiment [7] relates to Ax 10 Corynebacterium jeikeium. The experiment in a line: MIC microtiter plate test, axilla strain Ax 10. To be noted: Table 1; growth inhibited by at least 80%, 24 h at 36° C.
From the text: as §1
as §2, with “The minimal concentration of fragrance inhibiting the growth of an organism by at least 80% was determined as the minimal inhibitory concentration (MIC).” left out

Experiment [8] concerns Ax 12 Corynebacterium jeikeium. Put plainly: MIC microtiter plate test, axilla strain Ax 12. To be noted: Table 1; growth inhibited by at least 80%, 24 h at 36° C.
From the text: as §1
as §2, with “The minimal concentration of fragrance inhibiting the growth of an organism by at least 80% was determined as the minimal inhibitory concentration (MIC).” left out

Experiment [9] relates to Ax 15 Corynebacterium jeikeium. Put plainly: MIC microtiter plate test, axilla strain Ax 15. To be noted: for Minimal inhibitory concentration (MIC) Ax 15: Table 1, growth inhibited by at least 80%, 24 h at 36° C.
From the text: as §1, §2, §3

The subject of experiment [10] is Ax 19 Corynebacterium jeikeium. Put plainly: MIC microtiter plate test, axilla strain Ax 19. To be noted: Table 1; growth inhibited by at least 80%, 24 h at 36° C.
From the text: as §1
To each column a diluted suspension of a different test organism was distributed, 100 μl per well. 1% stock solutions of the fragrance materials were then prepared in MH-Tween broth. The fragrance material was dispersed by ultrasonication into the aqueous medium to obtain a homogenous emulsion. […]

The mark [11] stands for this setting: Table 7, concentration for at least 80% reduction in growth during 24 hours.

For `COC1CC(C2CC3CC2C(C)C3(C)C)CCC1O` (single isomer, unassigned) [Peak B], in [1], the “Bacteriostatic activity Corynebact. Ax 26” value is reported as 0.0016 percent (w/v).
On to `COC1CC(C2CC3CC2C(C)C3(C)C)CCC1O` (centres unmarked) [2-methoxy-4-(5,5,6-trimethylbicyclo[2.2.1]hept-2-yl)cyclohexan-1-ol], for which the “activity against Corynebacteria” value in the experiment on Corynebacteria was “highest activity”.
Same read-out and setting: under `COC1CCC(C2CC3CC2C(C)C3(C)C)CC1O` (centres unmarked) [2-methoxy-5-(5,5,6-trimethyl-bicyclo[2.2.1]hept-2-yl)cyclohexan-1-ol] stands “highest activity”.
Consider `CC1=CCC(/C=C\C(C)C(C)O)C1(C)C` (centres unmarked) [Ebanol], for which, in experiment [2], the “Minimal inhibitory concentration (MIC) Ax 7” value was determined as 0.1250 % weight/volume. The “Minimal inhibitory concentration (MIC) Ax 20” value in experiment [3] came to 0.1250 % weight/volume. Further, in experiment [4], the “Minimal inhibitory concentration (MIC) Ax 25” value was 0.1250 % weight/volume. The “Minimal inhibitory concentration (MIC) Ax 3” value in [5] is 0.1250 % weight/volume. In addition, in experiment [6], the “Minimal inhibitory concentration (MIC) Ax 11” value amounted to 0.2500 % weight/volume. Moreover, in [1], the “Minimal inhibitory concentration (MIC) Ax 26” value worked out at 0.1250 % weight/volume. Besides, in [7], the “Minimal inhibitory concentration (MIC) Ax 10” value was 0.2500 % weight/volume. In addition, the “Minimal inhibitory concentration (MIC) Ax 12” value in experiment [8] is given as 0.2500 % weight/volume. In experiment [9], the “Minimal inhibitory concentration (MIC) Ax 15” value is recorded as 0.2500 % weight/volume.
With `CC(C)=CCCC(C)=CCCC(C)=CCO` [Farnesol, 3,7,11-trimethyl-2,6,10-dodecatrien-1-ol], in experiment [1], the “Minimal inhibitory concentration (MIC) Ax 26” value was found to be 0.0078 % weight/volume and the “Bacteriostatic activity Corynebact. Ax 26” value is recorded as 0.0078 percent (w/v).
As for `CCC(=CCC1CC=C(C)C1(C)C)CO` (centres unmarked) [Radjanol], the “Minimal inhibitory concentration (MIC) Ax 7” value in experiment [2] was determined as 0.0625 % weight/volume. Further, in experiment [4], the “Minimal inhibitory concentration (MIC) Ax 25” value was determined as 0.1250 % weight/volume. Further, the “Minimal inhibitory concentration (MIC) Ax 26” value in experiment [1] amounted to 0.0625 % weight/volume. Also, the “Minimal inhibitory concentration (MIC) Ax 15” value in [9] is given as 0.125. % weight/volume.
On to `CC1=CCC(CCC(C)C(C)O)C1(C)C` (centres unmarked) [Sandalore], for which the “Minimal inhibitory concentration (MIC) Ax 7” value in experiment [2] worked out at 0.1250 % weight/volume. Further, the “Minimal inhibitory concentration (MIC) Ax 20” value in experiment [3] stood at 0.1250 % weight/volume. Further, in [4], the “Minimal inhibitory concentration (MIC) Ax 25” value came to 0.1250 % weight/volume. For the same molecule, the “Minimal inhibitory concentration (MIC) Ax 3” value in experiment [5] is listed as 0.1250 % weight/volume. For the same molecule, the “Minimal inhibitory concentration (MIC) Ax 11” value in experiment [6] was found to be 0.1250 % weight/volume. Moreover, in experiment [1], the “Minimal inhibitory concentration (MIC) Ax 26” value is given as 0.1250 % weight/volume. For the same molecule, the “Minimal inhibitory concentration (MIC) Ax 10” value in experiment [7] amounted to 0.1250 % weight/volume. For the same molecule, in [8], the “Minimal inhibitory concentration (MIC) Ax 12” value is recorded as 0.1250 % weight/volume. Also, the “Minimal inhibitory concentration (MIC) Ax 15” value in experiment [9] was found to be 0.2500 % weight/volume.
Regarding `Oc1cc(Cl)ccc1Oc1ccc(Cl)cc1Cl` [Triclosan, 2,4,4′-trichloro-2′-hydroxy-diphenyl-ether], in [2], the “Minimal inhibitory concentration (MIC) Ax 7” value worked out at 0.0029 % weight/volume. For the same molecule, the “Bacteriostatic activity Corynebact. Ax 7” value in experiment [2] (setting [11]) was 0.0025 percent (w/v). In experiment [3], the “Minimal inhibitory concentration (MIC) Ax 20” value worked out at 0.0107 % weight/volume. For the same molecule, the “Minimal inhibitory concentration (MIC) Ax 25” value in experiment [4] is 0.000015 % weight/volume. Besides, the “Bacteriostatic activity S. epidermidis” value in experiment [4] (setting [11]) was 0.000015 percent (w/v). Moreover, the “Minimal inhibitory concentration (MIC) Ax 3” value in experiment [5] is reported as 0.0029 % weight/volume. The “Minimal inhibitory concentration (MIC) Ax 11” value in [6] is recorded as 0.0029 % weight/volume. For the same molecule, in experiment [1], the “Minimal inhibitory concentration (MIC) Ax 26” value is 0.0015 % weight/volume and the “Bacteriostatic activity Corynebact. Ax 26” value is recorded as 0.0025 percent (w/v). For the same molecule, in experiment [7], the “Minimal inhibitory concentration (MIC) Ax 10” value is on record as 0.0020 % weight/volume. For the same molecule, in experiment [10], the “Minimal inhibitory concentration (MIC) Ax 19” value stood at 0.0039 % weight/volume. Also, in [8], the “Minimal inhibitory concentration (MIC) Ax 12” value was 0.0017 % weight/volume. In addition, the “Minimal inhibitory concentration (MIC) Ax 15” value in experiment [9] is 0.0029 % weight/volume. For the same molecule, the “Bacteriostatic activity Corynebact. Ax 15” value in experiment [9] (setting [11]) is 0.0030 percent (w/v).
